Laboratory results reported in PubChem BioAssay (NCI).
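Method: 48-hour compound exposure of cells in 96-well plates, five concentrations, linear interpolation of endpoints. TGI marks complete inhibition of growth.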

What was measured:
Assay in all cases: inhibition of tumour cell growth, NCI panel, 48 h
HOP-62 NSCLC = system: HOP-62 NSCLC
M14 melanoma = system: M14 melanoma
MCF7 breast = system: MCF7 breast
UACC-62 melanoma = system: UACC-62 melanoma
NCI-H23 lung = system: NCI-H23 lung
SR leukemia = system: SR leukemia
RPMI-8226 leukemia = system: RPMI-8226 leukemia
OVCAR-3 ovarian = system: OVCAR-3 ovarian
HS 578T breast = system: HS 578T breast
DU-145 prostate = system: DU-145 prostate
SNB-19 CNS = system: SNB-19 CNS
HT29 colon = system: HT29 colon
IGROV1 ovarian = system: IGROV1 ovarian
T-47D breast = system: T-47D breast
CAKI-1 renal = system: CAKI-1 renal
LXFL 529 NSCLC = system: LXFL 529 NSCLC
EKVX NSCLC = system: EKVX NSCLC
CCRF-CEM leukemia = system: CCRF-CEM leukemia
A549 NSCLC = system: A549 NSCLC
ACHN renal = system: ACHN renal
OVCAR-4 ovarian = system: OVCAR-4 ovarian
KM12 colon = system: KM12 colon
TK-10 renal = system: TK-10 renal
SK-MEL-28 melanoma = system: SK-MEL-28 melanoma
SN12C renal = system: SN12C renal
NCI-H522 lung = system: NCI-H522 lung
MDA-N = system: MDA-N
HL-60(TB) leukemia = system: HL-60(TB) leukemia
UO-31 renal = system: UO-31 renal
MOLT-4 leukemia = system: MOLT-4 leukemia
PC-3 prostate = system: PC-3 prostate
786-0 renal = system: 786-0 renal
SNB-78 CNS = system: SNB-78 CNS
MDA-MB-435 = system: MDA-MB-435
HCC-2998 colon = system: HCC-2998 colon
HCT-116 colon = system: HCT-116 colon
SK-MEL-2 melanoma = system: SK-MEL-2 melanoma
HOP-92 NSCLC = system: HOP-92 NSCLC
SK-OV-3 ovarian = system: SK-OV-3 ovarian
SF-268 CNS = system: SF-268 CNS
MALME-3M melanoma = system: MALME-3M melanoma
HCT-15 colon = system: HCT-15 colon
U251 CNS = system: U251 CNS
COLO 205 colon = system: COLO 205 colon
SF-539 CNS = system: SF-539 CNS
DMS 273 small cell lung = system: DMS 273 small cell lung
OVCAR-8 ovarian = system: OVCAR-8 ovarian
MDA-MB-231 breast = system: MDA-MB-231 breast
SF-295 CNS = system: SF-295 CNS
OVCAR-5 ovarian = system: OVCAR-5 ovarian
DLD-1 colon = system: DLD-1 colon
NCI-H460 lung = system: NCI-H460 lung
SK-MEL-5 melanoma = system: SK-MEL-5 melanoma
NCI-H226 lung = system: NCI-H226 lung
SW-620 colon = system: SW-620 colon
BT-549 breast = system: BT-549 breast
LOX IMVI melanoma = system: LOX IMVI melanoma
UACC-257 melanoma = system: UACC-257 melanoma
K-562 leukemia = system: K-562 leukemia
NCI/ADR-RES ovarian = system: NCI/ADR-RES ovarian
HOP-18 NSCLC = system: HOP-18 NSCLC
M19-MEL melanoma = system: M19-MEL melanoma
A498 renal = system: A498 renal
KM20L2 colon = system: KM20L2 colon
DMS 114 small cell lung = system: DMS 114 small cell lung
SNB-75 CNS = system: SNB-75 CNS
XF 498 CNS = system: XF 498 CNS
RXF 393 renal = system: RXF 393 renal

Cc1ccc(C(=O)N(Cc2ccccc2)Cc2ccccc2)cc1N=NN(C)C
TGI (HOP-62 NSCLC): 90 µM | TGI (M14 melanoma): > 81.2 µM | TGI (MCF7 breast): 65.9 µM | TGI (UACC-62 melanoma): > 31.6 µM | TGI (NCI-H23 lung): 58.7 µM | TGI (SR leukemia): > 100 µM | TGI (RPMI-8226 leukemia): > 100 µM | TGI (OVCAR-3 ovarian): 43.1 µM | TGI (HS 578T breast): 75.2 µM | TGI (DU-145 prostate): > 100 µM | TGI (SNB-19 CNS): > 100 µM | TGI (HT29 colon): 21.3 µM | TGI (IGROV1 ovarian): > 100 µM | TGI (T-47D breast): 75 µM | TGI (CAKI-1 renal): > 100 µM | TGI (LXFL 529 NSCLC): 72.4 µM | TGI (EKVX NSCLC): > 100 µM | TGI (CCRF-CEM leukemia): > 100 µM | TGI (A549 NSCLC): > 100 µM | TGI (ACHN renal): > 92.7 µM | TGI (OVCAR-4 ovarian): > 87.4 µM | TGI (KM12 colon): > 86.5 µM | TGI (TK-10 renal): > 100 µM | TGI (SK-MEL-28 melanoma): > 69.7 µM | TGI (SN12C renal): > 81.1 µM | TGI (NCI-H522 lung): 38.7 µM | TGI (MDA-N): > 100 µM | TGI (HL-60(TB) leukemia): 61.9 µM | TGI (UO-31 renal): > 71 µM | TGI (MOLT-4 leukemia): > 100 µM | TGI (PC-3 prostate): > 100 µM | TGI (786-0 renal): > 100 µM | TGI (SNB-78 CNS): > 100 µM | TGI (MDA-MB-435): 54.8 µM | TGI (HCC-2998 colon): 96 µM | TGI (HCT-116 colon): 30 µM | TGI (SK-MEL-2 melanoma): 9.79 µM | TGI (HOP-92 NSCLC): 70.1 µM | TGI (SK-OV-3 ovarian): 99.2 µM | TGI (SF-268 CNS): > 100 µM | TGI (MALME-3M melanoma): 40.6 µM | TGI (HCT-15 colon): > 90.1 µM | TGI (U251 CNS): > 100 µM | TGI (COLO 205 colon): 44.7 µM | TGI (SF-539 CNS): 44.9 µM | TGI (DMS 273 small cell lung): > 100 µM | TGI (OVCAR-8 ovarian): > 100 µM | TGI (MDA-MB-231 breast): 78 µM | TGI (SF-295 CNS): > 81.5 µM | TGI (OVCAR-5 ovarian): > 100 µM | TGI (DLD-1 colon): > 100 µM | TGI (NCI-H460 lung): > 100 µM | TGI (SK-MEL-5 melanoma): 27.3 µM | TGI (NCI-H226 lung): 56.2 µM | TGI (SW-620 colon): > 100 µM | TGI (BT-549 breast): 45.6 µM | TGI (LOX IMVI melanoma): 15.6 µM | TGI (UACC-257 melanoma): 53.4 µM | TGI (K-562 leukemia): > 100 µM | TGI (NCI/ADR-RES ovarian): > 100 µM

COc1cc(CNc2cnc3cc(N)ccc3n2)cc(OC)c1OC
TGI (HOP-62 NSCLC): > 100 µM | TGI (M14 melanoma): 74.3 µM | TGI (UACC-62 melanoma): > 100 µM | TGI (NCI-H23 lung): > 100 µM | TGI (SR leukemia): > 100 µM | TGI (OVCAR-3 ovarian): 41.1 µM | TGI (HOP-18 NSCLC): > 100 µM | TGI (SNB-19 CNS): > 100 µM | TGI (HT29 colon): 55.8 µM | TGI (IGROV1 ovarian): > 100 µM | TGI (CAKI-1 renal): > 100 µM | TGI (LXFL 529 NSCLC): > 100 µM | TGI (M19-MEL melanoma): > 100 µM | TGI (EKVX NSCLC): > 100 µM | TGI (CCRF-CEM leukemia): > 100 µM | TGI (A549 NSCLC): > 100 µM | TGI (ACHN renal): > 100 µM | TGI (OVCAR-4 ovarian): > 100 µM | TGI (KM12 colon): > 100 µM | TGI (TK-10 renal): > 100 µM | TGI (SK-MEL-28 melanoma): > 100 µM | TGI (SN12C renal): > 100 µM | TGI (NCI-H522 lung): 74.5 µM | TGI (HL-60(TB) leukemia): 39.8 µM | TGI (UO-31 renal): > 100 µM | TGI (MOLT-4 leukemia): > 100 µM | TGI (786-0 renal): > 100 µM | TGI (HCC-2998 colon): > 100 µM | TGI (HCT-116 colon): 50.2 µM | TGI (SK-MEL-2 melanoma): 2.38 µM | TGI (HOP-92 NSCLC): > 100 µM | TGI (SK-OV-3 ovarian): 53 µM | TGI (SF-268 CNS): > 100 µM | TGI (MALME-3M melanoma): > 100 µM | TGI (HCT-15 colon): > 100 µM | TGI (U251 CNS): > 100 µM | TGI (COLO 205 colon): 62.2 µM | TGI (SF-539 CNS): 42.4 µM | TGI (DMS 273 small cell lung): 2.43 µM | TGI (A498 renal): > 100 µM | TGI (OVCAR-8 ovarian): > 100 µM | TGI (KM20L2 colon): 37.7 µM | TGI (SF-295 CNS): 80.8 µM | TGI (OVCAR-5 ovarian): > 100 µM | TGI (DLD-1 colon): > 100 µM | TGI (DMS 114 small cell lung): 61 µM | TGI (NCI-H460 lung): > 100 µM | TGI (SK-MEL-5 melanoma): > 100 µM | TGI (SNB-75 CNS): > 100 µM | TGI (SW-620 colon): > 100 µM | TGI (LOX IMVI melanoma): > 100 µM | TGI (XF 498 CNS): > 100 µM | TGI (UACC-257 melanoma): > 100 µM | TGI (K-562 leukemia): > 100 µM

C=C1c2nc3ccccc3n2C=C(c2ccc(C)cc2)N1c1ccc(C)cc1
TGI (HOP-62 NSCLC): > 100 µM | TGI (M14 melanoma): > 100 µM | TGI (MCF7 breast): > 100 µM | TGI (UACC-62 melanoma): > 100 µM | TGI (NCI-H23 lung): > 100 µM | TGI (SR leukemia): > 74.3 µM | TGI (RPMI-8226 leukemia): > 89.8 µM | TGI (OVCAR-3 ovarian): > 100 µM | TGI (HS 578T breast): > 100 µM | TGI (DU-145 prostate): > 100 µM | TGI (SNB-19 CNS): > 100 µM | TGI (HT29 colon): > 100 µM | TGI (IGROV1 ovarian): > 100 µM | TGI (T-47D breast): > 100 µM | TGI (CAKI-1 renal): > 100 µM | TGI (EKVX NSCLC): > 100 µM | TGI (CCRF-CEM leukemia): > 100 µM | TGI (A549 NSCLC): > 100 µM | TGI (ACHN renal): > 100 µM | TGI (OVCAR-4 ovarian): > 100 µM | TGI (KM12 colon): > 82.2 µM | TGI (TK-10 renal): > 100 µM | TGI (SK-MEL-28 melanoma): > 100 µM | TGI (SN12C renal): > 100 µM | TGI (NCI-H522 lung): 56.7 µM | TGI (MDA-N): > 92.3 µM | TGI (HL-60(TB) leukemia): 64.4 µM | TGI (UO-31 renal): > 100 µM | TGI (MOLT-4 leukemia): > 100 µM | TGI (PC-3 prostate): > 100 µM | TGI (786-0 renal): > 100 µM | TGI (MDA-MB-435): > 78.2 µM | TGI (HCC-2998 colon): > 72.9 µM | TGI (HCT-116 colon): > 100 µM | TGI (SK-MEL-2 melanoma): > 100 µM | TGI (HOP-92 NSCLC): > 100 µM | TGI (SK-OV-3 ovarian): > 100 µM | TGI (SF-268 CNS): > 100 µM | TGI (MALME-3M melanoma): > 100 µM | TGI (HCT-15 colon): > 80.6 µM | TGI (U251 CNS): > 100 µM | TGI (COLO 205 colon): > 89.3 µM | TGI (RXF 393 renal): > 96.6 µM | TGI (SF-539 CNS): > 100 µM | TGI (A498 renal): > 100 µM | TGI (OVCAR-8 ovarian): > 100 µM | TGI (MDA-MB-231 breast): > 100 µM | TGI (SF-295 CNS): > 100 µM | TGI (OVCAR-5 ovarian): > 100 µM | TGI (NCI-H460 lung): > 100 µM | TGI (SK-MEL-5 melanoma): > 69.8 µM | TGI (NCI-H226 lung): > 44.4 µM | TGI (SNB-75 CNS): > 100 µM | TGI (SW-620 colon): > 100 µM | TGI (BT-549 breast): > 100 µM | TGI (LOX IMVI melanoma): > 100 µM | TGI (UACC-257 melanoma): > 100 µM | TGI (K-562 leukemia): > 100 µM | TGI (NCI/ADR-RES ovarian): > 78.9 µM
